Results taken from ChEMBL document CHEMBL4138191, “Organic arsenicals target thioredoxin reductase followed by oxidative stress and mitochondrial dysfunction resulting in apoptosis” (Eur J Med Chem, 2018).

What was measured:
HL-60 [1] = assay: Induction of mitochondrial membrane potential loss in human HL60 cells after 24 hrs by JC-1 staining-based flow cytometry (reference value: 28.6%); assay type: functional
HL-60 [2] = assay: Induction of mitochondrial membrane potential loss in human HL60 cells after 24 hrs by JC-1 staining-based flow cytometry (reference value: 24.3%); assay type: functional

## N#CC(C#N)=NNc1cccc(Cl)c1 [CARBONYL CYANIDE M-CHLOROPHENYLHYDRAZONE]
HL-60 [1]
  Activity: 62.4%
HL-60 [2]
  Activity: 85.8%
